# Measurements taken from ChEMBL document CHEMBL1287643, “3D-QSAR pharmacophore modeling and in silico screening of new Bcl-xl inhibitors” (Eur J Med Chem, 2010).
# Target: Bcl-2-like protein 1 (Homo sapiens, UniProt Q07817)
# Experiment: Inhibition of Bcl-XL
# Chain of Bcl-2-like protein 1 (Q07817 whole entry): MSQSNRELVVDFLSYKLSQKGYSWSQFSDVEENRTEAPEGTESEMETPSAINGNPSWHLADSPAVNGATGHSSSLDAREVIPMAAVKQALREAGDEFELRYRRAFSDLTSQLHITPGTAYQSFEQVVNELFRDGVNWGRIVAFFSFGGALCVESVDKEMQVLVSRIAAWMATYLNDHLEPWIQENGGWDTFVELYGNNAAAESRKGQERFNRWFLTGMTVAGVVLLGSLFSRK
row,EC50,Compound
1,681 nM,COC1(Cc2ccccc2)CCN(c2ccc(C(=O)NS(=O)(=O)c3ccc(NC(CCN(C)C)CSc4ccccc4)c([N+](=O)[O-])c3)cc2)CC1 (stereo unspecified)
2,380 nM,CN(C)CCC(CSc1ccccc1)Nc1ccc(S(=O)(=O)NC(=O)c2ccc(N3CCC(=Cc4ccc(F)cc4)CC3)cc2)cc1[N+](=O)[O-] (stereo unspecified)
3,1100 nM,CN(C)CCC(CSc1ccccc1)Nc1ccc(S(=O)(=O)NC(=O)c2ccc(N3CCN(Cc4ccccc4)CC3)cc2)cc1[N+](=O)[O-] (stereo unspecified)
4,579 nM,COC1(CC(C)C)CCN(c2ccc(C(=O)NS(=O)(=O)c3ccc(NC(CCN(C)C)CSc4ccccc4)c([N+](=O)[O-])c3)cc2)CC1 (stereo unspecified)
5,750 nM,COC1(CC(C)(C)C)CCN(c2ccc(C(=O)NS(=O)(=O)c3ccc(NC(CCN(C)C)CSc4ccccc4)c([N+](=O)[O-])c3)cc2)CC1 (stereo unspecified)
6,320 nM,COC1(CC2CCCCC2)CCN(c2ccc(C(=O)NS(=O)(=O)c3ccc(NC(CCN(C)C)CSc4ccccc4)c([N+](=O)[O-])c3)cc2)CC1 (stereo unspecified)
7,230 nM,COC1(Cc2ccccc2Cl)CCN(c2ccc(C(=O)NS(=O)(=O)c3ccc(NC(CCN(C)C)CSc4ccccc4)c([N+](=O)[O-])c3)cc2)CC1 (stereo unspecified)
8,250 nM,COC1(Cc2cccc(Cl)c2)CCN(c2ccc(C(=O)NS(=O)(=O)c3ccc(NC(CCN(C)C)CSc4ccccc4)c([N+](=O)[O-])c3)cc2)CC1 (stereo unspecified)
9,400 nM,COC1(Cc2ccc(Cl)cc2)CCN(c2ccc(C(=O)NS(=O)(=O)c3ccc(NC(CCN(C)C)CSc4ccccc4)c([N+](=O)[O-])c3)cc2)CC1 (stereo unspecified)
10,180 nM,COC1(Cc2ccccc2F)CCN(c2ccc(C(=O)NS(=O)(=O)c3ccc(NC(CCN(C)C)CSc4ccccc4)c([N+](=O)[O-])c3)cc2)CC1 (stereo unspecified)
11,150 nM,COC1(Cc2ccccc2C)CCN(c2ccc(C(=O)NS(=O)(=O)c3ccc(NC(CCN(C)C)CSc4ccccc4)c([N+](=O)[O-])c3)cc2)CC1 (stereo unspecified)
12,150 nM,COc1ccccc1CC1(OC)CCN(c2ccc(C(=O)NS(=O)(=O)c3ccc(NC(CCN(C)C)CSc4ccccc4)c([N+](=O)[O-])c3)cc2)CC1 (stereo unspecified)
13,100 nM,COC1(Cc2ccccc2Br)CCN(c2ccc(C(=O)NS(=O)(=O)c3ccc(NC(CCN(C)C)CSc4ccccc4)c([N+](=O)[O-])c3)cc2)CC1 (stereo unspecified)
14,35 nM,COC1(Cc2ccccc2-c2ccccc2)CCN(c2ccc(C(=O)NS(=O)(=O)c3ccc(NC(CCN(C)C)CSc4ccccc4)c([N+](=O)[O-])c3)cc2)CC1 (stereo unspecified)
15,600 nM,COC1(Cc2ccc(-c3ccccc3)cc2)CCN(c2ccc(C(=O)NS(=O)(=O)c3ccc(NC(CCN(C)C)CSc4ccccc4)c([N+](=O)[O-])c3)cc2)CC1 (stereo unspecified)
16,250 nM,CN(C)CCC(CSc1ccccc1)Nc1ccc(S(=O)(=O)NC(=O)c2ccc(N3CCC(=Cc4ccccc4F)CC3)cc2)cc1[N+](=O)[O-] (stereo unspecified)
17,619 nM,CN(C)CCC(CSc1ccccc1)Nc1ccc(S(=O)(=O)NC(=O)c2ccc(N3CCC(=Cc4ccc(Cl)cc4)CC3)cc2)cc1[N+](=O)[O-] (stereo unspecified)
18,150 nM,CN(C)CCC(CSc1ccccc1)Nc1ccc(S(=O)(=O)NC(=O)c2ccc(N3CCC(=Cc4ccccc4C(F)(F)F)CC3)cc2)cc1[N+](=O)[O-] (stereo unspecified)
19,2600 nM,CN(C)CCC(CSc1ccccc1)Nc1ccc(S(=O)(=O)NC(=O)c2ccc(N3CCC(=Cc4ccc(C(F)(F)F)cc4)CC3)cc2)cc1[N+](=O)[O-] (stereo unspecified)
20,300 nM,COc1ccccc1C=C1CCN(c2ccc(C(=O)NS(=O)(=O)c3ccc(NC(CCN(C)C)CSc4ccccc4)c([N+](=O)[O-])c3)cc2)CC1 (stereo unspecified)
21,1100 nM,CN(C)CCC(CSc1ccccc1)Nc1ccc(S(=O)(=O)NC(=O)c2ccc(N3CCC(=Cc4ccccc4C#N)CC3)cc2)cc1[N+](=O)[O-] (stereo unspecified)

row,EC50,Compound
1,550 nM,CN(C)CCC(CSc1ccccc1)Nc1ccc(S(=O)(=O)NC(=O)c2ccc(N3CCC(=Cc4ccccn4)CC3)cc2)cc1[N+](=O)[O-] (stereo unspecified)
2,1900 nM,CN(C)CCC(CSc1ccccc1)Nc1ccc(S(=O)(=O)NC(=O)c2ccc(N3CCC(=Cc4cccnc4)CC3)cc2)cc1[N+](=O)[O-] (stereo unspecified)
3,160 nM,CN(C)CCC(CSc1ccccc1)Nc1ccc(S(=O)(=O)NC(=O)c2ccc(N3CCC(=Cc4ccccc4-c4ccccc4)CC3)cc2)cc1[N+](=O)[O-] (stereo unspecified)
4,410 nM,Cc1ccccc1CN1CCN(c2ccc(C(=O)NS(=O)(=O)c3ccc(NC(CCN(C)C)CSc4ccccc4)c([N+](=O)[O-])c3)cc2)CC1 (stereo unspecified)
5,390 nM,CN(C)CCC(CSc1ccccc1)Nc1ccc(S(=O)(=O)NC(=O)c2ccc(N3CCN(Cc4ccccc4C(F)(F)F)CC3)cc2)cc1[N+](=O)[O-] (stereo unspecified)
6,390 nM,COc1ccccc1CN1CCN(c2ccc(C(=O)NS(=O)(=O)c3ccc(NC(CCN(C)C)CSc4ccccc4)c([N+](=O)[O-])c3)cc2)CC1 (stereo unspecified)
7,95.1 nM,CSc1ccccc1CN1CCN(c2ccc(C(=O)NS(=O)(=O)c3ccc(NC(CCN(C)C)CSc4ccccc4)c([N+](=O)[O-])c3)cc2)CC1 (stereo unspecified)
8,5500 nM,CN(C)CCC(CSc1ccccc1)Nc1ccc(S(=O)(=O)NC(=O)c2ccc(N3CCN(Cc4ccccc4S(C)(=O)=O)CC3)cc2)cc1[N+](=O)[O-] (stereo unspecified)
9,661 nM,CN(C)CCC(CSc1ccccc1)Nc1ccc(S(=O)(=O)NC(=O)c2ccc(N3CCN(Cc4ccccc4NC4CCCCC4)CC3)cc2)cc1[N+](=O)[O-] (stereo unspecified)
10,340 nM,CN(C)CCC(CSc1ccccc1)Nc1ccc(S(=O)(=O)NC(=O)c2ccc(N3CCN(Cc4ccccc4C4CCCCC4)CC3)cc2)cc1[N+](=O)[O-] (stereo unspecified)
11,18 nM,CN(C)CCC(CSc1ccccc1)Nc1ccc(S(=O)(=O)NC(=O)c2ccc(N3CCN(Cc4ccccc4-c4ccccc4)CC3)cc2)cc1[N+](=O)[O-] (stereo unspecified)
12,800 nM,CN(C)CCC(CSc1ccccc1)Nc1ccc(S(=O)(=O)NC(=O)c2ccc(N3CCN(Cc4ccccc4-c4cccnc4)CC3)cc2)cc1[N+](=O)[O-] (stereo unspecified)
13,380 nM,COc1cccc(-c2ccccc2CN2CCN(c3ccc(C(=O)NS(=O)(=O)c4ccc(NC(CCN(C)C)CSc5ccccc5)c([N+](=O)[O-])c4)cc3)CC2)c1 (stereo unspecified)
14,30 nM,COc1ccc(-c2ccccc2CN2CCN(c3ccc(C(=O)NS(=O)(=O)c4ccc(NC(CCN(C)C)CSc5ccccc5)c([N+](=O)[O-])c4)cc3)CC2)cc1 (stereo unspecified)
15,56 nM,CN(C)CCC(CSc1ccccc1)Nc1ccc(S(=O)(=O)NC(=O)c2ccc(N3CCN(Cc4ccccc4-c4ccccc4Cl)CC3)cc2)cc1[N+](=O)[O-] (stereo unspecified)
16,180 nM,CN(C)CCC(CSc1ccccc1)Nc1ccc(S(=O)(=O)NC(=O)c2ccc(N3CCN(Cc4ccccc4-c4cccc(Cl)c4)CC3)cc2)cc1[N+](=O)[O-] (stereo unspecified)
17,22 nM,CN(C)CCC(CSc1ccccc1)Nc1ccc(S(=O)(=O)NC(=O)c2ccc(N3CCN(Cc4ccccc4-c4ccc(-c5ccccc5)cc4)CC3)cc2)cc1[N+](=O)[O-] (stereo unspecified)
18,130 nM,CN(C)CCC(CSc1ccccc1)Nc1ccc(S(=O)(=O)NC(=O)c2ccc(N3CCN(Cc4ccccc4-c4ccc(F)cc4)CC3)cc2)cc1[N+](=O)[O-] (stereo unspecified)
19,40 nM,CN(C)CCC(CSc1ccccc1)Nc1ccc(S(=O)(=O)NC(=O)c2ccc(N3CCN(Cc4ccccc4-c4ccc(C(F)(F)F)cc4)CC3)cc2)cc1[N+](=O)[O-] (stereo unspecified)
20,460 nM,CN(C)CCC(CSc1ccccc1)Nc1ccc(S(=O)(=O)NC(=O)c2ccc(N3CCN(Cc4ccccc4-c4ccc(S(C)(=O)=O)cc4)CC3)cc2)cc1[N+](=O)[O-] (stereo unspecified)
